What follows are compounds tested against T1, FL-SMARCA2 (full-length human SMARCA2 isoform 1) (Homo sapiens, UniProt P51531) (assay: SMARCA2 ATPase activity assay (ADP-Glo, chicken mononucleosome substrate)). Settings: Table 3c.1; ATPase assay, enzyme 5 nM, ATP 250 uM, chicken mononucleosome 10 nM, 30 min preincubation.
T1 construct: FLAG tag (YKDDDDK) (C); made in house; host or cells: Sf21 insect cells (baculovirus, pFastBacI)
Assay type: biochemical

T1 sequence (P51531 with tags, fused parts or gaps): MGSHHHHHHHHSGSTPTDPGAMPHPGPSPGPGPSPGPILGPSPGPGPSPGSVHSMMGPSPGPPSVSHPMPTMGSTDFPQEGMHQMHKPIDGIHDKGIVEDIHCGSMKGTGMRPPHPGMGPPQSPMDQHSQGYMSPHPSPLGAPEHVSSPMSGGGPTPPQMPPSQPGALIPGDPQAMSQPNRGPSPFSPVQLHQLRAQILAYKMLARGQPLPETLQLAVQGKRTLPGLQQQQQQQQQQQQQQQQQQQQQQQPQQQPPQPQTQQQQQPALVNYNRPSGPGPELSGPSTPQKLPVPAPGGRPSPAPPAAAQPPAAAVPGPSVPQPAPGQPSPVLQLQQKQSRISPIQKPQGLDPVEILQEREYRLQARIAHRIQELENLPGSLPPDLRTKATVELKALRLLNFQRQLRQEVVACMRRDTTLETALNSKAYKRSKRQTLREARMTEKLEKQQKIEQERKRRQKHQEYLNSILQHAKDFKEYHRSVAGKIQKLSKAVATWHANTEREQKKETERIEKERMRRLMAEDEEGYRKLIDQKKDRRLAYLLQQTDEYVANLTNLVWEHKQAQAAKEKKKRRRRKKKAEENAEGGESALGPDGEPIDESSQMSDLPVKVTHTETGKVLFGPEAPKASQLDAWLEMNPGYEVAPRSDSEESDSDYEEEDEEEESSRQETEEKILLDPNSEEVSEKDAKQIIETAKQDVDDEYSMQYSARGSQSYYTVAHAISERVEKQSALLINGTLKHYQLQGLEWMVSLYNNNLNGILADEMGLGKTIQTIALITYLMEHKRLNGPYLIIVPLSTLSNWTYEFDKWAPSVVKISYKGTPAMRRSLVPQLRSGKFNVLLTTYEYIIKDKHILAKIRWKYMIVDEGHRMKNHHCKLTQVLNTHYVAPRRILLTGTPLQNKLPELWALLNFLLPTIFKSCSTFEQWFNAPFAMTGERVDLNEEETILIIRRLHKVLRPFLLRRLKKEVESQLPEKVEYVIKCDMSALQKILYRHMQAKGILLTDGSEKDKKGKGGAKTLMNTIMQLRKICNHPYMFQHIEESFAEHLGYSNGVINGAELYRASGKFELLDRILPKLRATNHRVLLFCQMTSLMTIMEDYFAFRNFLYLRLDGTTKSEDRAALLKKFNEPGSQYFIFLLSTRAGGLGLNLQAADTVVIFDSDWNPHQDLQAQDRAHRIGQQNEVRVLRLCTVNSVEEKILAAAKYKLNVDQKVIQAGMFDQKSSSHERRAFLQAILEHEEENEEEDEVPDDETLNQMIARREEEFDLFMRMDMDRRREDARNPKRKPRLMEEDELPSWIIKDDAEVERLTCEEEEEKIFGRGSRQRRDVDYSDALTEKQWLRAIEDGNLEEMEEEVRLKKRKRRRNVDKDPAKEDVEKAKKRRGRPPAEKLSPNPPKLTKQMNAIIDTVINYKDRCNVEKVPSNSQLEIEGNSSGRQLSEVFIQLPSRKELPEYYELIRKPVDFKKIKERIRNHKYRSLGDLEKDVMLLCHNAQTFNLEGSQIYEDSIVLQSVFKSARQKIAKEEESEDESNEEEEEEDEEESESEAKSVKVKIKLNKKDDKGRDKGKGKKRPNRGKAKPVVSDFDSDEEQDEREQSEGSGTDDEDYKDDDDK

Row | Structure (SMILES) | IC50
1 | O=C(Nc1cc(F)c(=O)n(CC(F)F)c1)c1cc(C#Cc2ccncn2)c(Cl)s1 [Compound 59c] | 0.132 µM
2 | Cn1cnc(C#Cc2cc(C(=O)Nc3cc(F)c(=O)n(CC(F)F)c3)sc2Cl)c1 [Compound 60c] | 0.251 µM
3 | NC(=O)c1nc(C#Cc2cc(C(=O)Nc3cc(F)c(=O)n(CC(F)F)c3)sc2Cl)cs1 [Compound 111c] | 0.0105 µM
4 | O=C(Nc1cc(F)c(=O)n(CC(F)F)c1)c1cc(C#Cc2cccc(Cl)c2)c(Cl)s1 [Compound 56c] | 0.297 µM

Same assay, conditions: Table 3.1; ATPase assay, enzyme 5 nM, ATP 250 uM, chicken mononucleosome 10 nM, 30 min preincubation

Row | Structure (SMILES) | IC50
5 | O=C(Nc1cc(F)c(=O)n(CC(F)F)c1)c1cc(C#Cc2cncnc2)c(Cl)s1 [Compound 346] | 0.181 µM

Same assay, conditions: Table 3d.1; ATPase assay, enzyme 5 nM, ATP 250 uM, chicken mononucleosome 10 nM, 30 min preincubation; read-out: FL-SMARCA2 IC>50

Row | Structure (SMILES) | IC50
6 | CC(N)C#Cc1sc(C(=O)Nc2cc(F)c(=O)n(CC(F)F)c2)cc1Cl (centres unmarked) [Compound 131d] | > 50 µM
7 | N#Cc1cc(C(=O)Nc2cc(C(F)F)c(=O)n(CC(F)F)c2)sc1C(F)(F)F [Compound 76d] | 1.31 µM
8 | N#Cc1sc(C(=O)Nc2cc(F)c(=O)n(CC(F)F)c2)cc1C#C[C@H]1C[C@H](O)C1 [Compound 104d] | 0.03 µM
9 | CC1(C)CC(C#Cc2cc(C(=O)Nc3cc(F)c(=O)n(CC(F)F)c3)sc2Cl)CC(C)(C)N1 [Compound 121d] | 16.8 µM
10 | N#Cc1sc(C(=O)Nc2cc(F)c(=O)n(CC(F)F)c2)cc1C#CC1CCOCC1 [Compound 102d] | 0.0194 µM
11 | O=C(Nc1cc(F)c(=O)n(CC(F)F)c1)c1cc(C#Cc2ccn(-c3ccccn3)c(=O)c2)c(Cl)s1 [Compound 97d] | 2.69 µM
12 | O=C(Nc1cc(F)c(=O)n(CC(F)F)c1)c1cc(C#CC2CCNC2)c(Cl)s1 (centres unmarked) [Compound 106d] | 2.19 µM
13 | O=C1C[C@@H](C#Cc2cc(C(=O)Nc3cc(F)c(=O)n(CC(F)F)c3)sc2Cl)CCN1 [Compound 62d] | 0.0225 µM
14 | Cn1cc(C#Cc2cc(C(=O)Nc3cc([N+](=O)[O-])c(=O)n(CC(F)F)c3)sc2C(F)(F)F)cn1 [Compound 128d] | > 50 µM
15 | O=C(Nc1cc(F)c(=O)n(CC(F)F)c1)c1cc(C#Cc2ccc3ccnn3c2)c(Cl)s1 [Compound 122d] | 0.253 µM
16 | O=C(Nc1cc(F)c(=O)n(CC(F)F)c1)c1cc(C#CC2CCCN2)c(Cl)s1 (centres unmarked) [Compound 107d] | 0.572 µM
17 | N#Cc1cc(C(=O)Nc2cc(F)c(=O)n(CC(F)F)c2)sc1C1CC1 [Compound 87d] | 0.978 µM

What follows are compounds tested on A549 cells (assay: High-throughput proliferation (HTP) assay for A549 cells (CellTiter-Glo, 7 days)). Settings: Homo sapiens, 168 h, read-out: A549 SMARCA2 IC50.
Assay type: cell-based
How it was run: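 A549 cells plated at 62.5 cells/well in F12K + 10% HI-FBS onto pre-dispensed compound, grown 7 days at 37° C., 5% CO2. Viability by CellTiter-Glo luminescence after 30 min at RT; EC50/IC50 from DMSO (0%) and 10 μM Doxorubicin (100%) inhibition controls.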

Row | Structure (SMILES) | IC50
18 | CC(N)C#Cc1sc(C(=O)Nc2cc(F)c(=O)n(CC(F)F)c2)cc1Cl (centres unmarked) [Compound 131d] | > 10 µM
19 | N#Cc1cc(C(=O)Nc2cc(C(F)F)c(=O)n(CC(F)F)c2)sc1C(F)(F)F [Compound 76d] | > 10 µM
20 | N#Cc1sc(C(=O)Nc2cc(F)c(=O)n(CC(F)F)c2)cc1C#C[C@H]1C[C@H](O)C1 [Compound 104d] | 4.37 µM
21 | CC1(C)CC(C#Cc2cc(C(=O)Nc3cc(F)c(=O)n(CC(F)F)c3)sc2Cl)CC(C)(C)N1 [Compound 121d] | 5.03 µM
22 | N#Cc1sc(C(=O)Nc2cc(F)c(=O)n(CC(F)F)c2)cc1C#CC1CCOCC1 [Compound 102d] | 1.05 µM
23 | O=C(Nc1cc(F)c(=O)n(CC(F)F)c1)c1cc(C#Cc2ccn(-c3ccccn3)c(=O)c2)c(Cl)s1 [Compound 97d] | > 10 µM
24 | O=C(Nc1cc(F)c(=O)n(CC(F)F)c1)c1cc(C#CC2CCNC2)c(Cl)s1 (centres unmarked) [Compound 106d] | > 10 µM
25 | O=C1C[C@@H](C#Cc2cc(C(=O)Nc3cc(F)c(=O)n(CC(F)F)c3)sc2Cl)CCN1 [Compound 62d] | > 10 µM
26 | O=C(Nc1cc(F)c(=O)n(CC(F)F)c1)c1cc(C#Cc2ccncn2)c(Cl)s1 [Compound 59c] | 1.19 µM
27 | O=C(Nc1cc(F)c(=O)n(CC(F)F)c1)c1cc(C#Cc2cncnc2)c(Cl)s1 [Compound 346] | 5.24 µM
28 | Cn1cnc(C#Cc2cc(C(=O)Nc3cc(F)c(=O)n(CC(F)F)c3)sc2Cl)c1 [Compound 60c] | > 10 µM
29 | NC(=O)c1nc(C#Cc2cc(C(=O)Nc3cc(F)c(=O)n(CC(F)F)c3)sc2Cl)cs1 [Compound 111c] | 1.95 µM
30 | Cn1cc(C#Cc2cc(C(=O)Nc3cc([N+](=O)[O-])c(=O)n(CC(F)F)c3)sc2C(F)(F)F)cn1 [Compound 128d] | 3.24 µM
31 | O=C(Nc1cc(F)c(=O)n(CC(F)F)c1)c1cc(C#Cc2cccc(Cl)c2)c(Cl)s1 [Compound 56c] | 4.4 µM
32 | O=C(Nc1cc(F)c(=O)n(CC(F)F)c1)c1cc(C#Cc2ccc3ccnn3c2)c(Cl)s1 [Compound 122d] | 8.44 µM
33 | O=C(Nc1cc(F)c(=O)n(CC(F)F)c1)c1cc(C#CC2CCCN2)c(Cl)s1 (centres unmarked) [Compound 107d] | > 10 µM
34 | N#Cc1cc(C(=O)Nc2cc(F)c(=O)n(CC(F)F)c2)sc1C1CC1 [Compound 87d] | > 10 µM

The compounds below were run on H358 cells (assay: High-throughput proliferation (HTP) assay for H358 cells (CellTiter-Glo, 7 days)). Settings: Homo sapiens, NCI-H358, 168 h, read-out: H358 SMARCA2 IC50.
Assay type: cell-based
How it was run: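 Cells were plated at 1,000 cells/well in RPMI 1640 + 10% HI-FBS + 1% pen/strep on pre-dispensed compound and incubated 7 days at 37 °C, 5% CO2. Viability was read as ATP luminescence with CellTiter-Glo after 30 min at RT. DMSO served as 0% and 10 µM doxorubicin as 100% inhibition for EC50/IC50.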

Row | Structure (SMILES) | IC50
35 | CC(N)C#Cc1sc(C(=O)Nc2cc(F)c(=O)n(CC(F)F)c2)cc1Cl (centres unmarked) [Compound 131d] | > 10 µM
36 | N#Cc1cc(C(=O)Nc2cc(C(F)F)c(=O)n(CC(F)F)c2)sc1C(F)(F)F [Compound 76d] | > 10 µM
37 | N#Cc1sc(C(=O)Nc2cc(F)c(=O)n(CC(F)F)c2)cc1C#C[C@H]1C[C@H](O)C1 [Compound 104d] | > 10 µM
38 | CC1(C)CC(C#Cc2cc(C(=O)Nc3cc(F)c(=O)n(CC(F)F)c3)sc2Cl)CC(C)(C)N1 [Compound 121d] | 7.38 µM
39 | N#Cc1sc(C(=O)Nc2cc(F)c(=O)n(CC(F)F)c2)cc1C#CC1CCOCC1 [Compound 102d] | > 10 µM
40 | O=C(Nc1cc(F)c(=O)n(CC(F)F)c1)c1cc(C#Cc2ccn(-c3ccccn3)c(=O)c2)c(Cl)s1 [Compound 97d] | > 10 µM
41 | O=C(Nc1cc(F)c(=O)n(CC(F)F)c1)c1cc(C#CC2CCNC2)c(Cl)s1 (centres unmarked) [Compound 106d] | > 10 µM
42 | O=C1C[C@@H](C#Cc2cc(C(=O)Nc3cc(F)c(=O)n(CC(F)F)c3)sc2Cl)CCN1 [Compound 62d] | > 10 µM
43 | O=C(Nc1cc(F)c(=O)n(CC(F)F)c1)c1cc(C#Cc2ccncn2)c(Cl)s1 [Compound 59c] | 2.03 µM
44 | O=C(Nc1cc(F)c(=O)n(CC(F)F)c1)c1cc(C#Cc2cncnc2)c(Cl)s1 [Compound 346] | > 10 µM
45 | Cn1cnc(C#Cc2cc(C(=O)Nc3cc(F)c(=O)n(CC(F)F)c3)sc2Cl)c1 [Compound 60c] | > 10 µM
46 | NC(=O)c1nc(C#Cc2cc(C(=O)Nc3cc(F)c(=O)n(CC(F)F)c3)sc2Cl)cs1 [Compound 111c] | > 10 µM
47 | Cn1cc(C#Cc2cc(C(=O)Nc3cc([N+](=O)[O-])c(=O)n(CC(F)F)c3)sc2C(F)(F)F)cn1 [Compound 128d] | 4.05 µM
48 | O=C(Nc1cc(F)c(=O)n(CC(F)F)c1)c1cc(C#Cc2cccc(Cl)c2)c(Cl)s1 [Compound 56c] | 9.02 µM
49 | O=C(Nc1cc(F)c(=O)n(CC(F)F)c1)c1cc(C#Cc2ccc3ccnn3c2)c(Cl)s1 [Compound 122d] | > 10 µM
50 | O=C(Nc1cc(F)c(=O)n(CC(F)F)c1)c1cc(C#CC2CCCN2)c(Cl)s1 (centres unmarked) [Compound 107d] | > 10 µM
51 | N#Cc1cc(C(=O)Nc2cc(F)c(=O)n(CC(F)F)c2)sc1C1CC1 [Compound 87d] | > 10 µM

What follows are compounds tested against FL-SMARCA4 (Homo sapiens, UniProt P51532) (assay: SMARCA4 ATPase activity assay (ADP-Glo, chicken mononucleosome substrate)). Settings: FL-SMARCA4 IC50.
FL-SMARCA4, sequence (P51532 whole entry): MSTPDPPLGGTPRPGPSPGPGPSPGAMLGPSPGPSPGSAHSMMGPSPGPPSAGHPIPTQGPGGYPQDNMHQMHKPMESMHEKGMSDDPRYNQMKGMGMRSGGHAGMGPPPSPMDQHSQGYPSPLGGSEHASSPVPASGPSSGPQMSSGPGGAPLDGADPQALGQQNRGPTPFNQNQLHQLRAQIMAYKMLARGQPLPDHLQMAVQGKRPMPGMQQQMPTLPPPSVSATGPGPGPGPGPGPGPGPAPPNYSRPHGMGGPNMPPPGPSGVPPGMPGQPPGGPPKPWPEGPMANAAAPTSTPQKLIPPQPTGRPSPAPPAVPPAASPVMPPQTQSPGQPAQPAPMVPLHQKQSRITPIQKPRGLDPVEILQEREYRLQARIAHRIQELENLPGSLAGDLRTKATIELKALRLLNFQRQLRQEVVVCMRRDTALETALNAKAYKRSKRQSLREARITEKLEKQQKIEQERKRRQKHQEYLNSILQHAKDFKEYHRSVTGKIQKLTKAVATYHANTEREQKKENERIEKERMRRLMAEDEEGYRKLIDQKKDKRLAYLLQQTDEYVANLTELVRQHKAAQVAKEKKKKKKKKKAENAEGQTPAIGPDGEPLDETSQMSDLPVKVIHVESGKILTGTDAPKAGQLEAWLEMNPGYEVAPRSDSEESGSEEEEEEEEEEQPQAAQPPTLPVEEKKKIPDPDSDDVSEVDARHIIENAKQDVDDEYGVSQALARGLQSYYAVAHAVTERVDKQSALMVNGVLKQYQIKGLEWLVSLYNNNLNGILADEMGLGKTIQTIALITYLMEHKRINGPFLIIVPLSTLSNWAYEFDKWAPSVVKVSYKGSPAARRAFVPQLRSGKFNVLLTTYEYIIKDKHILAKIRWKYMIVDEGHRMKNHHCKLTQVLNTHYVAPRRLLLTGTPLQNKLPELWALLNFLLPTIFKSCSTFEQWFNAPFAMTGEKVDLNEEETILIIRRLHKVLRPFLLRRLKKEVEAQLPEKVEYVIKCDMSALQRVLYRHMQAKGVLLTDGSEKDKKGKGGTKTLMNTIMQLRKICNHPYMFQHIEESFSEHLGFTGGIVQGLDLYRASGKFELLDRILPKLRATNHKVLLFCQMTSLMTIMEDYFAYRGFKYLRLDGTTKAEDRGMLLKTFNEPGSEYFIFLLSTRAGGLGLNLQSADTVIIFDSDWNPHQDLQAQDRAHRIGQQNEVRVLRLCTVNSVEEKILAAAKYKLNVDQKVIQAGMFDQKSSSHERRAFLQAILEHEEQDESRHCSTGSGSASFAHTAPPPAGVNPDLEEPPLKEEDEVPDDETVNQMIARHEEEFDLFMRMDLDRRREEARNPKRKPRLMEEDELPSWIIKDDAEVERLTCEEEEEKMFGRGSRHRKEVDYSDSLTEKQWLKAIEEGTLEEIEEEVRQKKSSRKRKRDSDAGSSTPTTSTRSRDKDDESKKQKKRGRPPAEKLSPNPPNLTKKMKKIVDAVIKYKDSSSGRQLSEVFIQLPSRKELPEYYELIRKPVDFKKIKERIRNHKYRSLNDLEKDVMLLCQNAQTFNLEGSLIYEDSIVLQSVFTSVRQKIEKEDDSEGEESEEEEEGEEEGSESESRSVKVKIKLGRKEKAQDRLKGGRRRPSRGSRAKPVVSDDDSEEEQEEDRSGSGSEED

Row | Structure (SMILES) | IC50
52 | CC(N)C#Cc1sc(C(=O)Nc2cc(F)c(=O)n(CC(F)F)c2)cc1Cl (centres unmarked) [Compound 131d] | > 50 µM
53 | N#Cc1cc(C(=O)Nc2cc(C(F)F)c(=O)n(CC(F)F)c2)sc1C(F)(F)F [Compound 76d] | 10.2 µM
54 | N#Cc1sc(C(=O)Nc2cc(F)c(=O)n(CC(F)F)c2)cc1C#C[C@H]1C[C@H](O)C1 [Compound 104d] | 0.082 µM
55 | CC1(C)CC(C#Cc2cc(C(=O)Nc3cc(F)c(=O)n(CC(F)F)c3)sc2Cl)CC(C)(C)N1 [Compound 121d] | 17.3 µM
56 | N#Cc1sc(C(=O)Nc2cc(F)c(=O)n(CC(F)F)c2)cc1C#CC1CCOCC1 [Compound 102d] | 0.0464 µM
57 | O=C(Nc1cc(F)c(=O)n(CC(F)F)c1)c1cc(C#Cc2ccn(-c3ccccn3)c(=O)c2)c(Cl)s1 [Compound 97d] | 3.38 µM
58 | O=C(Nc1cc(F)c(=O)n(CC(F)F)c1)c1cc(C#CC2CCNC2)c(Cl)s1 (centres unmarked) [Compound 106d] | 5.63 µM
59 | O=C1C[C@@H](C#Cc2cc(C(=O)Nc3cc(F)c(=O)n(CC(F)F)c3)sc2Cl)CCN1 [Compound 62d] | 0.0571 µM
60 | Cn1cc(C#Cc2cc(C(=O)Nc3cc([N+](=O)[O-])c(=O)n(CC(F)F)c3)sc2C(F)(F)F)cn1 [Compound 128d] | > 50 µM
61 | O=C(Nc1cc(F)c(=O)n(CC(F)F)c1)c1cc(C#Cc2ccc3ccnn3c2)c(Cl)s1 [Compound 122d] | 0.835 µM
62 | O=C(Nc1cc(F)c(=O)n(CC(F)F)c1)c1cc(C#CC2CCCN2)c(Cl)s1 (centres unmarked) [Compound 107d] | 1.54 µM
63 | N#Cc1cc(C(=O)Nc2cc(F)c(=O)n(CC(F)F)c2)sc1C1CC1 [Compound 87d] | 4.99 µM

Same assay, conditions: FL-SMARCA4 IC50, Table 3.2; ATPase assay, enzyme 5 nM, ATP 250 uM, chicken mononucleosome 10 nM, 30 min preincubation

Row | Structure (SMILES) | IC50
64 | O=C(Nc1cc(F)c(=O)n(CC(F)F)c1)c1cc(C#Cc2cncnc2)c(Cl)s1 [Compound 346] | 0.606 µM

Same assay, conditions: FL-SMARCA4 IC>50, Table 3c.2; ATPase assay, enzyme 5 nM, ATP 250 uM, chicken mononucleosome 10 nM, 30 min preincubation

Row | Structure (SMILES) | IC50
65 | O=C(Nc1cc(F)c(=O)n(CC(F)F)c1)c1cc(C#Cc2ccncn2)c(Cl)s1 [Compound 59c] | 0.379 µM
66 | Cn1cnc(C#Cc2cc(C(=O)Nc3cc(F)c(=O)n(CC(F)F)c3)sc2Cl)c1 [Compound 60c] | 0.492 µM
67 | NC(=O)c1nc(C#Cc2cc(C(=O)Nc3cc(F)c(=O)n(CC(F)F)c3)sc2Cl)cs1 [Compound 111c] | 0.0265 µM
68 | O=C(Nc1cc(F)c(=O)n(CC(F)F)c1)c1cc(C#Cc2cccc(Cl)c2)c(Cl)s1 [Compound 56c] | 1.04 µM
